This note sets out measurements from US20210253575A1, “PYRROLIDINE AMINE COMPOUNDS FOR THE TREATMENT OF AUTOIMMUNE DISEASE” (Hoffmann-La Roche Inc., priority 2018, published 2021).

This experiment concerns the target T1, human TLR7 (Homo sapiens, UniProt Q9NYK1).
T1 sequence (Q9NYK1 27-1049): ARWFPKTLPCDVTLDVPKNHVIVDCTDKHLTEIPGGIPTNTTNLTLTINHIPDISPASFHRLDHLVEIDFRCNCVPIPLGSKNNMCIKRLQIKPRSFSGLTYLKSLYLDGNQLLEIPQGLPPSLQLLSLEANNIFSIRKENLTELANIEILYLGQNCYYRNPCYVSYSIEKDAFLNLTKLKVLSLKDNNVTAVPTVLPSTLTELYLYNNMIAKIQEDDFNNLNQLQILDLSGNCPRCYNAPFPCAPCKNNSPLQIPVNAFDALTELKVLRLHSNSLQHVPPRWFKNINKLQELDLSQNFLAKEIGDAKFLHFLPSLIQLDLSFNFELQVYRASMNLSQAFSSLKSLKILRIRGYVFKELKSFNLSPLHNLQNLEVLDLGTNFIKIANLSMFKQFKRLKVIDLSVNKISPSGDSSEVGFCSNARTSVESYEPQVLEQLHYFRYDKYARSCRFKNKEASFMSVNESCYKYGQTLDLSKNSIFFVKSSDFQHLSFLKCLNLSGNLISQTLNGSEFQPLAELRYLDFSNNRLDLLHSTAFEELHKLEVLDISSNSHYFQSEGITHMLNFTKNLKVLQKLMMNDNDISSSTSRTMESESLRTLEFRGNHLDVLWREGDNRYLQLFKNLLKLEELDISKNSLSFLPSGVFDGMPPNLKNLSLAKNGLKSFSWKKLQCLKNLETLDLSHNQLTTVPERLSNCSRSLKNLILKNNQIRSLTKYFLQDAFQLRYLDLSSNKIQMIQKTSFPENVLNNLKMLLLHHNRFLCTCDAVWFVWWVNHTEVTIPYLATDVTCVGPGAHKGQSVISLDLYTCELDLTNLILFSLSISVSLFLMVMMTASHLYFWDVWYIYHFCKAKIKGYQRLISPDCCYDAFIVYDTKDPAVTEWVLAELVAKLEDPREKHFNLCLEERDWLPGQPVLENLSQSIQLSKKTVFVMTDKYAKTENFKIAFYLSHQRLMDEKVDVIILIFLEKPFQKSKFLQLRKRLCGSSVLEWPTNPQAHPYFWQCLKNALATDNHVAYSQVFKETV
In words: HEK293-Blue-hTLR-7 cells assay (SEAP reporter, R848 stimulation). Type of experiment: cell-based. The settings on record: HEK293-Blue-hTLR7 cells, R848 ligand, 20 hrs incubation. The protocol: The following tests were carried out in order to determine the activity of the compounds of formula (I) in HEK293-Blue-hTLR-7/8/9 cells assay.
HEK293-Blue-hTLR-7 Cells Assay:
A stable HEK293-Blue-hTLR-7 cell line was purchased from InvivoGen (Cat. #: hkb-htlr7, San Diego, Calif., USA). These cells were originally designed for studying the stimulation of human TLR7 by monitoring the activation of NF-κB. A SEAP (secreted embryonic alkaline phosphatase) reporter gene was placed under the control of the IFN-β minimal promoter fused to five NF-κB and AP-1-binding sites. The SEAP was induced by activating NF-κB and AP-1 via stimulating HEK-Blue hTLR7 cells with TLR7 ligands. Therefore the reporter expression was declined by TLR7 antagonist under the stimulation of a ligand, such as R848 (Resiquimod), for incubation of 20 hrs. The cell culture supernatant SEAP reporter activity was determined using QUANTI-Blue™ kit (Cat. #: rep-qb1, Invivogen, San Diego, Ca, USA) at a wavelength of 640 nm, a detection medium that turns purple or blue in the presence of alkaline phosphatase.
HEK293-Blue-hTLR7 cells were incubated at a density of 250,000-450,000 cells/mL in a volume of 170 μL in a 96-well plate in Dulbecco's Modified Eagle's medium (DMEM) containing 4.5 g/L glucose, 50 U/mL penicillin, […], […], 2 mM L-glutamine, 10% (v/v) heat-inactivated fetal bovine serum with addition of 20 μL test compound in a serial dilution in the presence of final DMSO at 1% and 10 μL of 20 uM R848 in above DMEM, perform incubation under 37° C. in a CO2 incubator for 20 hrs. Then 20 μL of the supernatant from each well was incubated with 180 μL Quanti-blue substrate solution at 37° C. for 2 hrs and the absorbance was read at 620-655 nm using a spectrophotometer. The signalling pathway that TLR7 activation leads to downstream NF-κB activation has been widely accepted, and therefore similar reporter assay was modified for evaluating TLR7 antagonist.
A word on the IC50: it is the concentration that inhibits the measured activity by half. A higher IC50 goes with weaker potency in that assay. For `CC[C@@H]1CN(c2ccc(C#N)c3ncccc23)C[C@H]1CN1CCC2(CCNCC2)CC1` (relative stereo) [Example 15, 5-[Trans-3-(3,9-diazaspiro[5.5]undecan-3-ylmethyl)-4-ethyl-pyrrolidin-1-yl]quinoline-8-carbonitrile], it took 107 nM to reach half-maximal inhibition (IC50).

As for `FC(F)(F)c1ccc(N2C[C@@H](CN3CCC4(CCNC4)C3)[C@H](C(F)(F)F)C2)c2nccnc12` (relative stereo) [Example 19, 5-[Trans-3-(2,7-diazaspiro[4.4]nonan-2-ylmethyl)-4-(trifluoromethyl)pyrrolidin-1-yl]-8-(trifluoromethyl)quinoxaline], the IC50 was 142 nM.

`C[C@@H]1CN(c2ccc(C(F)(F)F)c3nccnc23)C[C@H]1CN1CCC2(CCNCC2)CC1` (relative stereo) [Example 21, 3-[[Trans-4-methyl-1-[8-(trifluoromethyl)quinoxalin-5-yl]pyrrolidin-3-yl]methyl]-3,9-diazaspiro[5.5]undecane]: 189 nM corresponded to half-maximal inhibition (IC50).

For `N#Cc1ccc(N2C[C@@H](CN3CCC4(CCNCC4)CC3)[C@H](C(F)F)C2)c2cccnc12` (relative stereo) [Example 27, 5-[Trans-3-(3,9-diazaspiro[5.5]undecan-3-ylmethyl)-4-(difluoromethyl)pyrrolidin-1-yl]quinoline-8-carbonitrile], 354 nM corresponded to half-maximal inhibition (IC50).

`N#Cc1ccc(N2C[C@@H](CN3CCC4(CCNCC4)CC3)[C@H](C3CC3)C2)c2cccnc12` (relative stereo) [Example 28, 5-[Trans-3-cyclopropyl-4-(3,9-diazaspiro[5.5]undecan-3-ylmethyl)pyrrolidin-1-yl]quinoline-8-carbonitrile]: the half-inhibitory concentration (IC50) came out at 355 nM.

On to `CC[C@@H]1CN(c2ccc(C#N)c3ncccc23)C[C@H]1CN1CCC2(CCNC2)C1` (relative stereo) [Example 29, 5-[Trans-3-(2,7-diazaspiro[4.4]nonan-2-ylmethyl)-4-ethyl-pyrrolidin-1-yl]quinoline-8-carbonitrile], for which the IC50 was 370 nM.

`C[C@@H]1CN(c2ccc(C(F)(F)F)c3nccnc23)C[C@H]1CN1CCC(N2CCCCC2)CC1` (relative stereo) [Example 33, 5-[Trans-3-methyl-4-[[4-(1-piperidyl)-1-piperidyl]methyl]pyrrolidin-1-yl]-8-(trifluoromethyl)quinoxaline] showed a half-maximal inhibitory concentration (IC50) of 432 nM.

Take `N#Cc1ccc(N2C[C@@H](CN3CCC4(CCNC4)C3)[C@H](C(F)F)C2)c2cccnc12` (relative stereo) [Example 34, 5-[Trans-3-(2,7-diazaspiro[4.4]nonan-2-ylmethyl)-4-(difluoromethyl)pyrrolidin-1-yl]quinoline-8-carbonitrile]: the IC50 was determined as 454 nM.

Regarding `CC(C)[C@@H]1CN(c2ccc(C#N)c3ncccc23)C[C@H]1CN1CCC2(CCNCC2)CC1` (relative stereo) [Example 36, 5-[Trans-3-(3,9-diazaspiro[5.5]undecan-3-ylmethyl)-4-isopropyl-pyrrolidin-1-yl]quinoline-8-carbonitrile], the 50% inhibitory concentration (IC50) was 471 nM.

`CC(C)[C@@H]1CN(c2ccc(C#N)c3ncccc23)C[C@H]1CN1CCC2(CCNC2)C1` (relative stereo) [Example 44, 5-[Trans-3-(2,7-diazaspiro[4.4]nonan-2-ylmethyl)-4-isopropyl-pyrrolidin-1-yl]quinoline-8-carbonitrile]: 963 nM corresponded to half-maximal inhibition (IC50).

`N#Cc1ccc(N2CC(CN3CCC(N)CC3)C3(CC3)C2)c2nccnc12` (single isomer, unassigned) [Example 68A, 8-[7-[(4-Amino-1-piperidyl)methyl]-5-azaspiro[2.4]heptan-5-yl]quinoxaline-5-carbonitrile] gave a concentration for half-maximal inhibition (IC50) of 61 nM. Against the preceding compound, the IC50 is about 16-fold lower.

Turning to `N#Cc1ccc(N2C[C@H](CN3CCC4(CCNCC4)CC3)[C@@H](C(F)(F)F)C2)c2nccnc12` [Example 1, 8-[(3S,4R)-3-(3,9-diazaspiro[5.5]undecan-3-ylmethyl)-4-(trifluoromethyl)pyrrolidin-1-yl]quinoxaline-5-carbonitrile], the 50% inhibitory concentration (IC50) was determined as 5 nM.

For the compound `N#Cc1ccc(N2C[C@H](CN3CCC4(CCNCC4)CC3)[C@@H](C(F)(F)F)C2)c2cccnc12` [Example 2, 5-[(3S,4R)-3-(3,9-diazaspiro[5.5]undecan-3-ylmethyl)-4-(trifluoromethyl)pyrrolidin-1-yl]quinoline-8-carbonitrile], the IC50 stood at 20 nM.

In turn, `N#Cc1ccc(N2C[C@H](CN3CCC4(CCNC4)C3)[C@@H](C(F)(F)F)C2)c2nccnc12` (stereo partly drawn) [Example 5, 8-[(3S,4R)-3-(2,7-diazaspiro[4.4]nonan-2-ylmethyl)-4-(trifluoromethyl)pyrrolidin-1-yl]quinoxaline-5-carbonitrile] showed an IC50 of 36 nM.

`N#Cc1ccc(N2C[C@H](CN3CCC4(CCCNC4)C3)[C@@H](C(F)(F)F)C2)c2cccnc12` (stereo partly drawn) [Example 6, 5-[(3S,7R)-3-(2,9-diazaspiro[4.5]decan-2-ylmethyl)-4-(trifluoromethyl)pyrrolidin-1-yl]quinoline-8-carbonitrile] yielded an IC50 of 48 nM. This IC50 and that of the compound before are within 1.5-fold of each other.

For the compound `CC1(N)CCN(CC2CN(c3ccc(C#N)c4nccnc34)CC23CC3)CC1` (stereo not shown) [Example 7, 8-[7-[(4-Amino-4-methyl-1-piperidyl)methyl]-5-azaspiro[2.4]heptan-5-yl]quinoxaline-5-carbonitrile], the concentration for half-maximal inhibition (IC50) worked out at 54 nM.

As to `N#Cc1ccc(N2C[C@H](CN3CC4(CCCNC4)C3)[C@@H](C(F)(F)F)C2)c2cccnc12` [Example 8, 5-[(3S,7R)-3-(2,8-diazaspiro[3.5]nonan-2-ylmethyl)-4-(trifluoromethyl)pyrrolidin-1-yl]quinoline-8-carbonitrile], the IC50 was determined as 57 nM.

Compound `N#Cc1ccc(N2C[C@H](CN3CCC4(CCNC4)C3)[C@@H](C(F)(F)F)C2)c2cccnc12` (stereo partly drawn) [Example 9, 5-[(3S,4R)-3-(2,7-diazaspiro[4.4]nonan-2-ylmethyl)-4-(trifluoromethyl)pyrrolidin-1-yl]quinoline-8-carbonitrile] registered an IC50 of 61 nM.

Consider `N#Cc1ccc(N2C[C@H](CN3CCC(N4CCCCC4)CC3)[C@@H](C(F)(F)F)C2)c2cccnc12` [Example 10, 5-[(3S,4R)-3-[[4-(1-piperidyl)-1-piperidyl]methyl]-4-(trifluoromethyl)pyrrolidin-1-yl]quinoline-8-carbonitrile], for which the IC50 was found to be 69 nM.

Compound `N#Cc1ccc(N2CC(CN3CCC(N4CCCCC4)CC3)C3(CC3)C2)c2nccnc12` (stereo not shown) [Example 11, 8-[7-[[4-(1-Piperidyl)-1-piperidyl]methyl]-5-azaspiro[2.4]heptan-5-yl]quinoxaline-5-carbonitrile] registered an IC50 of 74 nM.

Take `CC1(N)CCN(C[C@H]2CN(c3ccc(C#N)c4nccnc34)C[C@@H]2C(F)(F)F)CC1` [Example 12, 8-[(3S,4R)-3-[(4-amino-4-methyl-1-piperidyl)methyl]-4-(trifluoromethyl)pyrrolidin-1-yl]quinoxaline-5-carbonitrile]: the midpoint of inhibition, the IC50, lay at 15 nM.

On to `N#Cc1ccc(N2CC(CN3CCC4(CCCNC4)CC3)C3(CC3)C2)c2nccnc12` (stereo not shown) [Example 13, 8-[7-(2,9-Diazaspiro[5.5]undecan-9-ylmethyl)-5-azaspiro[2.4]heptan-5-yl]quinoxaline-5-carbonitrile], for which the IC50 was 102 nM.
